Laboratory results taken from US20190111026A1, “ANTI-TRITRICHOMONAS AGENT” (Pola Pharma Inc., priority 2016, published 2019).
Converted amounts (≈) assume the structure as drawn.

Experiments:
[1] = Particle size by laser diffraction method (Microtrac MT3000); format: physicochemical; conditions: dispersion medium: water
Protocol: (§1) Luliconazole was ground with a mortar to change the particle size, and the anti-Tritrichomonas activity of solid luliconazole was studied. More specifically, luliconazole having a variety of particle sizes was added in an amount of 5 mg to 5 mL of Diamond's media supplemented with 10% adult bovine serum, and 10,000 cells of Tritrichomonas mobilensis were inoculated on the media, cultured at 35° C. for 24 hours, and then measured for the number of viable T. mobilensis cells by use of a Neubauer hemocytometer. Luliconazole was not added to the control group. The growth inhibition rate was calculated as follows: [(the number of viable cells of the control group−the number of viable cells of the sample group)/the number of viable cells of the control group]×100. […] It is noted that the particle size was measured by a laser diffraction method (Microtrac MT3000, manufactured by NIKKISO CO., LTD; dispersion medium: water).

[2] = tested on: Tritrichomonas mobilensis; assay: Anti-Tritrichomonas activity of solid ground luliconazole (viable count, growth inhibition rate); format: cell-based; conditions: 35° C., 24 hours; for Viable Cell Count Ave.: 5 mg solid in 5 mL Diamond's medium with 10% adult bovine serum, 10,000 cells inoculated; for Growth Inhibition Rate: 5 mg solid in 5 mL medium, 10,000 cells, [(control-sample)/control]×100
Protocol: It is noted that the growth inhibition rate is calculated as follows: [(the number of viable cells of the control group−the number of viable cells of the sample group)/the number of viable cells of the control group]×100. It is preferred that the anti-Tritrichomonas effect is determined 24 to 72 hours after the inoculation of 10,000 cells of Tritrichomonas protozoa on 5 mL of liquid medium in which 5 mg of sample luliconazole is added. As the liquid medium, it is preferred to use Diamond's medium with 5% to 15% adult bovine serum added as desired.
as §1

[3] = tested on: Tritrichomonas mobilensis; assay: Anti-Tritrichomonas effect of supernatant from medium stored with ground luliconazole; format: cell-based; conditions: supernatant of medium stored with 5 mg ground luliconazole at 35° C. for 24 hours
Protocol: In order to confirm the influence of luliconazole which was eluted in the solutions in Example 2, 7 minute-ground luliconazole was added in an amount of 5 mg to Diamond's medium with 10% adult bovine serum added, and stored at 35° C. for 24 hours, and the supernatant was obtained from the Diamond's medium. Tritrichomonas mobilensis was inoculated on the supernatant, cultured at 35° C. for 24 hours and measured for the number of viable cells by use of a Neubauer hemocytometer. Luliconazole was not added to the control group. The result from the control group was 973,333±23,094 while the result from the supernatant was 1,000,000±144,222. […] In this regard as well, it is clear that luliconazole can control effectively Tritrichomonas protozoa in the intestinal tract.

[4] = tested on: Tritrichomonas mobilensis (T. mobilensis: USA: M776 c12); assay: Activity of luliconazole in solution against Tritrichomonas mobilensis (viable count, Neubauer hemocytometer); format: cell-based; conditions: luliconazole dissolved in methanol, Diamond's medium with 10% adult bovine serum, 35° C., 24 hours
Protocol: The activity of luliconazole against Tritrichomonas mobilensis of the genus Tritrichomonas (T. mobilensis: USA: M776 c12) was studied. Luliconazole as synthesized according to the method disclosed in the above JP 60-218387 A was used as a sample. More specifically, Tritrichomonas protozoa were cultured on Diamond's medium with 10% adult bovine serum added. Luliconazole was dissolved in 100 μL of methanol to obtain solutions having a variety concentrations of luliconazole. The cultures were then inoculated on 5 mL of 10% adult bovine serum-added Diamond's media in which the solutions were added, cultured at 35° C. for 24 hours, and then measured for the number of viable Tritrichomonas protozoa by use of a Neubauer hemocytometer. MIC and IC50 were obtained from the number of viable protozoa. MIC was 50 μg/mL and IC50 was 10. 1 μg/mL.

[5] = from Lulicon Cream Pharmaceutical Product Interview Form 2006; cited from earlier work

| D50 [1] [μm] | IC50 [4] [µg/mL] | MIC [4] [µg/mL] | Structure (SMILES) | Viable Cell Count Ave. [2] | Growth Inhibition Rate [2] | anti-Tritrichomonas effect of supernatant [3] | number of viable cells ([3]; culture 35° C., 24 hours, control 973,333±23,094) | solubility in water [5] |
| --- | --- | --- | --- | --- | --- | --- | --- | --- |
| 84.7 | – | – | N#C/C(=C1/SC[C@@H](c2ccc(Cl)cc2Cl)S1)n1ccnc1 [7-minute ground luliconazole, luliconazole] | 20,000 | 88.7 | did not have anti-Tritrichomonas effect | 1,000,000±144,222 | – |
| 78.5 | – | – | N#C/C(=C1/SC[C@@H](c2ccc(Cl)cc2Cl)S1)n1ccnc1 [8-minute ground luliconazole, luliconazole] | 26,667 | 84.9 | – | – | – |
| – | 10.1 (≈ 28.5 µM) | 50 (≈ 141 µM) | N#C/C(=C1/SC[C@@H](c2ccc(Cl)cc2Cl)S1)n1ccnc1 [Luliconazole, luliconazole] | – | – | – | – | insoluble in water |

Continued, compound first:

| Structure (SMILES) | D50 [1] [μm] | IC50 [4] [µg/mL] | MIC [4] [µg/mL] | Viable Cell Count Ave. [2] | Growth Inhibition Rate [2] | anti-Tritrichomonas effect of supernatant [3] | number of viable cells ([3]; culture 35° C., 24 hours, control 973,333±23,094) | solubility in water [5] |
| --- | --- | --- | --- | --- | --- | --- | --- | --- |
| N#C/C(=C1/SC[C@@H](c2ccc(Cl)cc2Cl)S1)n1ccnc1 [5-minute ground luliconazole, luliconazole] | 114.4 | – | – | 43,333 | 75.5 | – | – | – |
| N#C/C(=C1/SC[C@@H](c2ccc(Cl)cc2Cl)S1)n1ccnc1 [6-minute ground luliconazole, luliconazole] | 96.6 | – | – | 20,000 | 88.7 | – | – | – |
